Structures can show the parent of a compound that is named as a salt. Where two headings read alike, the source gives them in different places.
How the values were obtained:
ecNOS = ecNOS (Homo sapiens, UniProt P29474); test: NOS activity: L-[3H]citrulline formation from L-[3H]arginine, ecNOS; format: biochemical
Protocol: (§1) NOS activity is measured as the formation of L-[2,3,4,5-^3 H]Citrullinefrom L-[2,3,4,5-^3 H]Arginine. The incubation buffer (100 μL) contained; 100 mM TES, pH 7.5, 5 μM FAD, 5 μM FMN, 10 μM BH4, 0.5 mM NADPH, 0.5 mM DTT, 0.5 mg/mL BSA, 2 mM CaCl2, 10 μg/mL calmodulin (bovine), 1 μM L-Arg, 0.2 μCi L-[2,3,4,5-^3 H]Arg, and the inhibitor in aqueous DMSO (max. 5%). The reaction is initiated by addition of enzyme. Incubations are performed at room temperature for 30 minutes and stopped by the addition of an equal volume of quenching buffer consisting of 200 mM sodium citrate, pH 2.2, 0.02% sodium azide. Reaction products are separated by passing through a cation exchange resin and quantitated as cpm by scintillation counting.

ncNOS = ncNOS (Homo sapiens, UniProt P29475); test: biochemical
iNOS = iNOS (Homo sapiens, UniProt P35228); test: NOS activity: L-[3H]citrulline formation from L-[3H]arginine, iNOS; format: biochemical
Protocol: as §1

[1] = Table 2, ecNOS, 1 μM L-Arg, pH 7.5, room temperature, 30 minutes, read-out: ecNOS (IC50)
[2] = Table 2, ncNOS, 1 μM L-Arg, pH 7.5, room temperature, 30 minutes, read-out: ncNOS (IC50)
[3] = Table 2, iNOS, 1 μM L-Arg, pH 7.5, room temperature, 30 minutes, read-out: iNOS (IC50)
[4] = Table 1, ecNOS, 1 μM L-Arg, pH 7.5, room temperature, 30 minutes, read-out: ecNOS (IC50)
[5] = Table 1, ncNOS, 1 μM L-Arg, pH 7.5, room temperature, 30 minutes, read-out: ncNOS (IC50)
[6] = Table 1, iNOS, 1 μM L-Arg, pH 7.5, room temperature, 30 minutes, read-out: iNOS (IC50)

Chain of ncNOS (P29475 whole entry): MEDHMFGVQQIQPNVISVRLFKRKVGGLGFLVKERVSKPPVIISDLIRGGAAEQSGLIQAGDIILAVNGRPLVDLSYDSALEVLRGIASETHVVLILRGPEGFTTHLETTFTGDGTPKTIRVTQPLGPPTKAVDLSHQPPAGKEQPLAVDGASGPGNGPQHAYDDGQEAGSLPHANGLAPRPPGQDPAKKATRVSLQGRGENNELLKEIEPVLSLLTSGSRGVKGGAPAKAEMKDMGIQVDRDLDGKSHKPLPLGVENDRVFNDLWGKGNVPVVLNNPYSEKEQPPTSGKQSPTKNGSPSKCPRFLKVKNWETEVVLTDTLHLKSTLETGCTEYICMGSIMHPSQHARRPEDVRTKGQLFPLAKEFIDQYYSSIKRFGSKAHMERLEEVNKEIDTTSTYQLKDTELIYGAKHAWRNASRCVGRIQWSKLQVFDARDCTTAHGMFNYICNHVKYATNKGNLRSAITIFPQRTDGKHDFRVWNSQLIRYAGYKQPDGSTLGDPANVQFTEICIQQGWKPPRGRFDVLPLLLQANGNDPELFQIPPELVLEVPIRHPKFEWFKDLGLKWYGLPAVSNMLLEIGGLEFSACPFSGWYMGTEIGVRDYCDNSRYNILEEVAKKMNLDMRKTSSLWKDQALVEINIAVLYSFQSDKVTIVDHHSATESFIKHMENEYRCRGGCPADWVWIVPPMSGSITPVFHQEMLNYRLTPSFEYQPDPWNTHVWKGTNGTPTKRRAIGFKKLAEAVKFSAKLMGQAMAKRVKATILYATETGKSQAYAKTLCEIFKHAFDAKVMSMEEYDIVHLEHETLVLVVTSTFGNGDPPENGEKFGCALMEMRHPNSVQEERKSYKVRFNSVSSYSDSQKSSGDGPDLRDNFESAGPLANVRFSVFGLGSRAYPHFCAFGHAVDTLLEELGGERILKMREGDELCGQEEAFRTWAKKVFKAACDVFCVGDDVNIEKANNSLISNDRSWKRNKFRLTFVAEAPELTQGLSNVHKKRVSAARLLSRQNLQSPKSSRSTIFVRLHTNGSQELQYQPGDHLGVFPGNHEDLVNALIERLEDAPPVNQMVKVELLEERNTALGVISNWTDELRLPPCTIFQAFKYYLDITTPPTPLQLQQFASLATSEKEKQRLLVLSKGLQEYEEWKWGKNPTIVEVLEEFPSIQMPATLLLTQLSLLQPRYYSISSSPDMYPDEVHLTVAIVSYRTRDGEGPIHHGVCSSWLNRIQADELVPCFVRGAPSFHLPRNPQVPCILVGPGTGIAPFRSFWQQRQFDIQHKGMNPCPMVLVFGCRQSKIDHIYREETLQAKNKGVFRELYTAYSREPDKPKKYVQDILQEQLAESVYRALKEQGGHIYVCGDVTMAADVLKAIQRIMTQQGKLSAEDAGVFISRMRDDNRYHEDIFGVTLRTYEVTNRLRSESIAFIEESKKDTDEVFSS

Row | Compound | IC50 (ecNOS; [1]) [µM] | IC50 (ncNOS; [2]) [µM] | IC50 (iNOS; [3]) [µM] | other results
1 | Cc1cc(N)nc(CCc2ccccc2)c1 [Example 73, 2-Amino-4-methyl-6-(2-phenylethyl)pyridine] | < 10 | < 10 | < 10 | –
2 | CSCc1ccnc(N)c1 [Example 22, 2-Amino-4-methylthiomethylpyridine] | > 50 | > 50 | < 50 | –
3 | Cc1cc(N)ncc1N [Example 30, 2.5-Diamino-4-picoline] | – | – | – | IC50 (ecNOS): < 50 µM; IC50 (ncNOS): < 50 µM; IC50 (iNOS): < 10 µM
4 | Cc1cc(N)ncc1CN [Example 45, 2-Amino-5-aminomethyl-4-methylpyridine dihydrochloride] | < 10 | < 50 | < 10 | –
5 | Nc1ccnc(N)c1 [Example 38, 2,4-Diaminopyridine dihydrochloride] | < 50 | < 50 | < 10 | –
6 | COc1cccnc1N [Example 20, 2-Amino-3-methoxypyridine] | < 50 | < 50 | > 50 | –
7 | Cc1ccc(N)nc1C [Example 51, 2-Amino-5,6-dimethylpyridine] | < 10 | < 10 | < 10 | –
8 | Cc1ccnc(N)c1Cl [Example 28, 2-Amino-3-chloro-4-picoline] | < 10 | < 10 | < 1 | –
9 | Cc1cc(N)nc(CCN)c1 [Example 67, 2-Amino-6-(2-aminoethyl)-4-methylpyridine] | < 50 | < 1 | < 1 | –
10 | COc1ccnc(N)c1 [Example 34, 4-Methoxy-2-aminopyridine] | < 10 | < 10 | < 10 | –
11 | COC(=O)c1cc(Cl)cc(N)n1 [Example 36, 4-Chloro-6-methoxycarbonyl-2-aminopyridine] | > 50 | > 50 | < 50 | –
12 | Nc1ncccc1OCC[C@H](N)C(=O)O [Example 48, 2-(2-Amino-3-pyridinoxy)-ethyl-(S)-glycine dihydrochloride] | < 10 | < 50 | < 50 | –
13 | Cc1cc(N)nc(CCCCN)c1 [Example 56, 2-Amino-6-(4-aminobutyl)-4-methylpyridine] | < 10 | < 1 | < 1 | –
14 | Cc1cc(N)nc(CCCC(=O)O)c1 [Example 75, 4-(6-Amino-4-methyl-2-pyridinyl)butanoic acid hydrochloride] | < 1 | < 10 | < 10 | –
15 | CCCCCc1cnc(N)cc1C [Example 33, 2-Amino-4-methyl-5-pentyl-pyridine] | > 50 | < 10 | < 50 | –
16 | CC(=O)Nc1cnc(N)cc1C [Example 31, 5-Acetylamino-2-amino-4-picoline] | < 50 | < 50 | < 10 | –
17 | Nc1ncccc1O [Example 9] | – | – | – | IC50 (ecNOS; [4]): > 50 µM; IC50 (ncNOS; [5]): > 50 µM; IC50 (iNOS; [6]): 47.5 µM
18 | Nc1ccccn1 [Example 1] | – | – | – | IC50 (ecNOS; [4]): < 10 µM; IC50 (ncNOS; [5]): < 10 µM; IC50 (iNOS; [6]): 1.4 µM
19 | CC(=O)NCCCCc1cc(C)cc(N)n1 [Example 57, 6-(4-Acetamidobutyl)-2-amino-4-methylpyridine] | < 10 | < 1 | < 10 | –
20 | C=CCCc1cc(C)cc(N)n1 [Example 53, 2-Amino-6-(3-buten-1-yl)-4-methylpyridine] | < 1 | < 1 | < 1 | –
21 | Cc1cc(N)ncc1Cl [Example 29, 2-Amino-5-chloro-4-picoline] | < 50 | < 50 | < 10 | –
22 | Cc1cc(N)nc(CCC(N)C(=O)O)c1 (stereo not drawn) [Example 59, α-(2-(6-Amino-4-methylpyrid-2-yl)ethyl)glycine dihydrochloride] | < 1 | < 1 | < 1 | –
23 | Nc1cc(Cl)ccn1 [Example 15, 2-Amino-4-chloropyridine] | – | – | – | IC50 (ecNOS; [4]): < 10 µM; IC50 (ncNOS; [5]): < 10 µM; IC50 (iNOS; [6]): < 1 µM
24 | Cc1cc(N)nc(CC[C@H](C)N)c1 [Example 76, (S)-2-Amino-6-(3-aminobutyl)-4-methylpyridine] | < 10 | < 1 | < 1 | –

From patent US5972975A, “Substituted 2-aminopyridines as inhibitors of nitric oxide synthase” (priority 1997, dated 1999)
